{"source": "patent EP3996708B1", "about": "“PHARMACEUTICAL COMPOSITIONS COMPRISING INHIBITORS OF OPA1 FOR USE IN THE TREATMENT OF CANCER” (priority 2019, dated 2021)", "key": {"rOPA1": {"molecular_target": "T1, rOPA1 (Mus musculus, UniProt P58281)", "T1 construct": "His-tag (C); made in house; host or cells: E. coli", "T1 sequence (P58281 168-960 limits assumed)": "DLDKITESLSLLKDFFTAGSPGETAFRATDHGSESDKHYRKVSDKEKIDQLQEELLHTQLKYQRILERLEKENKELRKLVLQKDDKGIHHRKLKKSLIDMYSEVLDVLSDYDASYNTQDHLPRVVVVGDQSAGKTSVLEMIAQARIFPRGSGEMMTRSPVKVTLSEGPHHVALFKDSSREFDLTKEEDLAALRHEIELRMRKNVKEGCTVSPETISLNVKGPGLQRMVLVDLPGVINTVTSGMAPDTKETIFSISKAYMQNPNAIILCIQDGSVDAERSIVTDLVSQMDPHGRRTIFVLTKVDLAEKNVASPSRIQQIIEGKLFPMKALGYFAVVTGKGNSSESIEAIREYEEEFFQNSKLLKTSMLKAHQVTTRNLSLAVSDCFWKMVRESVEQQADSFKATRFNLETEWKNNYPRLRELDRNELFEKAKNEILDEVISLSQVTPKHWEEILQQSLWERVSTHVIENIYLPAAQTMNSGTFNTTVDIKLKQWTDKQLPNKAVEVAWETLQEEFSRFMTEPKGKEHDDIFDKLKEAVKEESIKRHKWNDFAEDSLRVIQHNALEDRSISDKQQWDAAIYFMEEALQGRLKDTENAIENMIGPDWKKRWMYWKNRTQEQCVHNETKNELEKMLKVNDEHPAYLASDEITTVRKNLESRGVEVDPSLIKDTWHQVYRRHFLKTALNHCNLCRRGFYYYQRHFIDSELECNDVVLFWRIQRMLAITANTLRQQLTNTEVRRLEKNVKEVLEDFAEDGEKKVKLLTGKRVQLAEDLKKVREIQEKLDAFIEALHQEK", "test": "Malachite green (MG) GTPase activity assay of rOPA1, assay set-up and high-throughput screening (384-well)", "format": "biochemical", "details": "for inhibition of rOPA1 GTP hydrolysis: comparison of candidates for positive control; for rOPA1 activity: increasing concentrations of the non-hydrolysable GTP analogues"}, "[1]": {"test": "Solubility in water, DMSO and cell culture medium", "format": "physicochemical", "description": "(§1) Drug Discov Today 17, 419-424)."}, "[2]": {"test_system": "Mouse embryonic fibroblasts (MEFs)", "test": "Cell permeability (280 nm absorbance of extracellular medium; SPE and HPLC-UV of cell lysates)", "format": "in vitro ADME", "description": "as §1"}, "MDA-MB-231 cells [3]": {"test_system": "MDA-MB-231 cells", "test": "Scratch wound migration assay", "format": "cell-based, human", "details": "cells transfected with OPA1 siRNA, 20 µM MYLS22", "method": "Scratch wound migration assay: HUVEC and MDA cells were cultured in 48-well plates in 800 µl of EGM2 for 48 hours and were wounded with the head of 200 µl tips."}, "MEFs [4]": {"test_system": "MEFs", "test": "Cytochrome c immunolocalization after H2O2", "quoted_text": "For cytochrome c and TOM20 detection, green and red channel images respectively were acquired simultaneously using two separate color channels on the detector assembly of a Zeiss LSM 700 confocal microscope."}, "WT MEFs mitochondria": {"test_system": "WT MEFs mitochondria", "test": "Live imaging of mitochondrial network (mtYFP)", "details": "50 µM or 100 µM, 24h", "protocol": "After 24 h, the coverslips were incubated in Hank's Balanced Salt Solution (HBSS) supplemented with 10 mM Hepes and placed on the stage of the microscope. […] Stacks of 25 images separated by 0.3 µm along the z axis were acquired. Convolution and z-stack project were performed using a plug-in of the ImageJ software (National Institutes of Health). Mitochondrial length was quantified with Image J by measuring the average mitochondrial major axis length of 10 mitochondria per cell in 20 cells per sample."}, "[5]": {"test_system": "mitochondria purified from mouse liver", "test": "Membrane potential of isolated mitochondria by Rhodamine 123", "details": "complex I (glutamate/malate) or complex II (succinate) substrates; concentrations well above rOPA1 IC50", "protocol": "(§2) Quantitative determination of cytochrome c in the pellet and the supernatant fractions was determined using the rat/mouse specific ELISA Cytochrome c Immunoassay (R&D Systems). Respiratory chain dysfunctions and membrane potential were assayed by monitoring the release of rhodamine123 from pre-stained mitochondria."}, "MEFs [6]": {"test_system": "MEFs", "test": "Mitochondrial membrane potential by TMRM imaging in response to oligomycin", "details": "range of concentrations well above rOPA1 IC50"}, "[7]": {"test_system": "recombinant Dynamin-1 lacking the proline rich domain (PRD) (Dyn1ΔPRD)", "test": "Malachite green GTPase activity assay of recombinant Dynamin-1 (specificity)", "details": "even at concentrations four times above the calculated IC50 for OPA1", "protocol": "The assay was performed in 96 well-plates in a final volume of 190 µl/well. To start the hydrolysis reaction, 10 µl of 0.5 µM of rOPA1 in 40 mM Hepes/KOH pH 7.4 was mixed with 10 µl of 500 µM GTP and 10 mM MgCl2 and incubated for 2 hours at 37 °C. The reaction was then halted by adding to each well 5 µl of 500 µM EDTA, which chelates the Mg2+ required for GTP hydrolysis. To measure the phosphate content, 150 µL of the Malachite Green-ammonium molybdate solution (1 mM Malachite Green, 10 mM ammonium molybdate in 1N HCl) was added at each well. After 15 minutes incubation at 25 °C, was measured the absorbance at 595 nm using a microplate reader. Phosphate concentration of each sample was calculated from a standard curve ranging from 1 to 100 µM Pi generated for each experiment. […] As positive control of OPA1 activity inhibition, 5 µl of 500 µM EDTA were added before incubation with GTP to prevent the hydrolysis reaction. Samples with only buffer and 500 µM GTP were used as blank controls."}, "WT MEFs": {"test_system": "WT MEFs", "test": "Analysis of cell death by Annexin V / propidium iodide flow cytometry in MEFs", "details": "concentrations up to 100 µM, 24h", "protocol": "(§3) Analysis of cell death: 1 × 10^5 MEFs were grown in 12-well plates. […] After different timepoints cells were stained with Annexin-V-FICT and propidium iodide (PI), according to manufacturer's protocol (eBioscienceTM). Cell death was measured by flow cytometry (FACSCalibur) as the percentage of Annexin-V and PI positive events."}, "MDA-MB-231 cells [8]": {"test_system": "MDA-MB-231 cells", "test": "Analysis of cell death by Annexin V / propidium iodide flow cytometry in MDA-MB-231 cells", "protocol": "After 24h, viability was measured cytofluorimetrically as the percentage of Annexin V and propidium iodide negative cells. […] At the indicated timepoints, cells viability was measured cytofluorimetrically as the percentage of Annexin V and propidium iodide negative cells. Data represents average ± SEM of three independent experiments.\nas §3"}, "[9]": {"test_system": "purified mouse liver mitochondria", "test": "In vitro cytochrome c release from isolated mitochondria in response to cBID (ELISA, immunoblot)", "protocol": "as §2"}}, "note": "Like-named read-outs stand apart in the source and are kept apart here.", "data": [{"smiles": "O=C(O)CN(CCN(CC(=O)O)CC(=O)O)CC(=O)O", "note": "[EDTA, ethylenediaminetetraacetic acid]", "values": [{"measurement": "inhibition of rOPA1 GTP hydrolysis", "setting": "rOPA1", "result": "stably and fully inhibited GTP hydrolysis"}]}, {"smiles": "Nc1nc2c(ncn2[C@@H]2O[C@H](COP(=O)(O)OP(=O)(O)O)[C@@H](O)[C@H]2O)c(=O)[nH]1", "note": "[GDP]", "values": [{"measurement": "rOPA1 GTPase activity", "setting": "rOPA1; 500 µM GDP", "result": "not influenced"}]}, {"smiles": "Nc1nc2c(ncn2[C@@H]2O[C@H](COP(=O)(O)OP(=O)(O)NP(=O)(O)O)[C@@H](O)[C@H]2O)c(=O)[nH]1", "note": "[GMPPNP]", "values": [{"measurement": "rOPA1 activity", "setting": "rOPA1", "result": "inhibited"}]}, {"smiles": "Nc1nc2c(ncn2[C@@H]2O[C@H](COP(=O)(O)OP(=O)(O)OP(O)(O)=S)[C@@H](O)[C@H]2O)c(=O)[nH]1", "note": "[GTPγS]", "values": [{"measurement": "inhibition of rOPA1 GTP hydrolysis", "setting": "rOPA1", "result": "residual rOPA1 activity"}, {"measurement": "rOPA1 activity", "setting": "rOPA1", "result": "inhibited"}]}, {"smiles": "Cc1nn(-c2ccccc2)c2sc(C(=O)Nc3c(C)n(C)n(-c4ccccc4)c3=O)cc12", "note": "[MYLS22, N-(1,5-dimethyl-3-oxo-2-phenyl-2,3-dihydro-1H-pyrazol-4-YL) 3-methyl-1-phenyl-1H-thieno[2,3-c]pyrazole-5-carboxamide]", "values": [{"measurement": "aqueous solubility", "setting": "[1]", "result": "low aqueous solubility"}, {"measurement": "solubility", "setting": "[1]; DMSO, organic solvent or mixture, read-out: soluble in DMSO", "result": "≤ 1000", "unit": "µM"}, {"measurement": "solubility", "setting": "[1]; cell culture medium, plasma or biological fluid, read-out: soluble in cell culture medium", "result": "≤ 150", "unit": "µM"}, {"measurement": "cell permeability", "setting": "[2]; HPLC-UV at 280 nm on cell lysates after SPE", "result": "can enter mammalian cells"}, {"measurement": "concentration of MYLS22 in the extracellular medium", "setting": "[2]; MEFs in HBSS, 280 nm absorption over time", "result": "decreased with incubation time"}, {"measurement": "effect on cell migration combined with OPA1 silencing", "setting": "MDA-MB-231 cells [3]", "result": "not additive"}, {"measurement": "time to maximal release of cytochrome c after apoptosis induction", "setting": "MEFs [4]; 50µM MYLS22, 1 mM H2O2", "result": 30, "unit": "min"}, {"measurement": "release of cytochrome c", "setting": "MEFs [4]; 50µM MYLS22, H2O2, versus 25 µM MYLS22 or DMSO", "result": "significantly more rapidly"}, {"measurement": "mitochondrial morphology", "setting": "WT MEFs mitochondria", "result": "dose dependent mitochondrial fragmentation and decrease in mitochondrial length"}, {"measurement": "uptake of the potentiometric dye Rhodamine 123", "setting": "[5]", "result": "did not reduce uptake"}, {"measurement": "mitochondrial membrane potential (TMRM fluorescence)", "setting": "MEFs [6]", "result": "membrane potential was stable"}, {"measurement": "Dyn1ΔPRD inhibition", "setting": "[7]", "result": "did not"}, {"measurement": "cell death", "setting": "WT MEFs", "result": "did not cause MEFs death"}, {"measurement": "cell death after an apoptotic stimulus", "setting": "MDA-MB-231 cells [8]; 50 or 100 µM MYLS22 and 1 mM H2O2", "result": "enhances MDA-MB-231 cells death"}, {"measurement": "cell death", "setting": "MDA-MB-231 cells [8]; indicated concentrations, 24h", "result": "does not induce cell death in MDA-MB-231 cells"}, {"measurement": "increase of the amount of cytochrome c release", "setting": "[9]; 25µM MYLS22, cBID", "result": 1.7, "unit": "fold"}, {"measurement": "amount of cytochrome c release", "setting": "[9]; 125 µM MYLS22, cBID", "result": "more than doubled"}]}]}
